Data published in paper PMC12195941, “Novel Micro-LC-MS/MS Method for the Quantification of Tenofovir and Its Active Metabolite Tenofovir-Diphosphate in Biological Matrices for Therapeutic Drug Monitoring” (Pharmaceuticals, 2025).

Key:
[1] = TFV and TFVDP levels in clinical samples (whole blood, plasma) of treated patients by micro-LC-MS/MS; format: in vivo; conditions: patient 10, tenofovir alafenamide 25 mg, 12 to 24 h after dosing
Method: Blood samples were collected, with informed consent, from 11 HIV-infected patients treated with tenofovir, 12 to 24 h after dosing. Two patients (numbers 10 and 11) received tenofovir alafenamide 25 mg, the others being administered with tenofovir disoproxil fumarate 245 mg.
Blood samples were collected from HIV-positive patients at the National Institute for Infectious Diseases “Prof Dr. Matei Bals”, with the approval of the Bioethical Committee (protocol code C10242/02.10.2024, approved 18 October 2024). All patients were under treatment with anti-retroviral drugs, and sampling was performed from 12 to 24 h after dosing.
Blood samples (4 mL each) were collected using potassium EDTA (sampling tubes EDTAK3, 4.0 mL, Englober SRL, Brasov, Romania) or sodium citrate (9NC sampling tubes, BD, Plymouth, UK) as anticoagulants. Aliquots of 0.5 mL were used for plasma separation, by centrifugation (5 min, 3900 rpm), within 60 min from sampling. […] All samples were frozen at −30 °C until analyzed. […]
Analyses were performed in positive electrospray ionization mode. The chromatographic trace 288.054/176.0 was used for TFV quantification, while TFVDP was monitored on the trace 447.942/176.0. Mass transitions 288.054/135.9 and 447.942/270.0 were also used for confirmation of the measured compounds. […]

[2] = Validation stability of TFV and TFVDP in spiked whole blood and sample extracts; format: in vitro ADME; conditions: for Stability, Sample extracts 24 h 10 °C: autosampler; for Stability, Sample extracts 24 h 10 °C / Stability, Blood 4 h room temp. / Stability, Blood freeze-thaw 5 cycles / Stability, Blood at −30 °C for 1 month: the values are: stability, % of nominal; for Stability, Blood at −30 °C for 1 month: blood diluted 1:5 with 1.25% ammonia
Method: Samples were stable for 1 month at −30 °C, for 5 freeze–thaw cycles and for 24 h at 10 °C in the autosampler. Benchtop stability was evaluated for 4 h at room temperature with blood samples spiked with TFVDP only and the results were within 96.9 and 104.714 from nominal in stabilized conditions, while in the absence of the phosphatase inhibitor the degradation was, on average, 85% at all tested concentrations. Calibration curves were linear for both TFV and TFVDP, with correlation coefficients > 0.995.
Spiked calibration standards (CC) and quality control (QC) samples were prepared in whole blood diluted 1:5 with ultrapure water containing 1.25% ammonia (v/v). TFV concentrations were as follows: 0–0.25–1–4–16–64–128–256 ng/mL (CC) and 0.75–15–210 ng/mL (QC Low, Medium and High, respectively). TFVDP concentrations were as follows: 0–0.5–2–8–32–128–256–512 ng/mL (CC) and 1.5–30–420 ng/mL (QC Low, Medium and High, respectively).
Blank blood was frozen at −80 °C before use; therefore, cells were lysed. CCs and QCs were built in blood diluted 1 + 4 with water and alkalinized with 1.25% ammonia, for phosphatases inhibition. Patient samples received identical treatment before undergoing the sample preparation protocol, ensuring uniform composition across samples.
The method for quantifying TFV and TFVDP in whole blood was validated in terms of selectivity, linearity, accuracy, precision, limits of quantification, sample stability under storage and processing conditions, extraction recovery, and matrix effects, in accordance with the April 2022 ICH guidelines, subsequently adopted by the FDA in November 2022 [38]. The analytical ranges to be validated were chosen based upon the expected concentrations as found in literature and from in-house preliminary experiments. Matrix effects were evaluated comparing the signal of theoretical QC concentrations prepared in mobile phase (taken as 100% recovery) against those obtained after spiking blank extracts at identical concentrations. Matrix factors were calculated for each analyte, and isotope-labelled internal standards were employed to correct for residual matrix influence.

[3] = TFVDP stability in blood spiked without stabilizers (degradation by phosphatases); format: in vitro ADME; conditions: degrades to TFVMP and TFV
Method: A series of experiments was conducted to evaluate this degradation by phosphatases and counteract it. TFVDP only (1 or 2 µg/mL) was added to blood or plasma; 50 µL aliquots were extracted in the presence of isotope-labeled internal standards, and the formation of TFV and […] was monitored, together with TFVDP degradation. […] The extent of the phenomenon is illustrated in Figure 3. The first attempt to reduce phosphatases activity was performing all the sample preparation procedures on ice bath. No significant improvement was observed.
Figure 3 Extracted ion chromatograms overlay (A) recorded on the MRM transitions of TFV (B), TFVMP (C) and TFVDP (D) and their corresponding deuterated internal standards in an extracted sample (as described in paragraph 3.5). Blood sample diluted 1:5 with water and spiked with 520 ng/mL TFVDP in a non-stabilized sample (left) and with phosphatases inhibition (right). High peaks of TFMP were observed only after a short time (30 min) at room temperature without enzyme inhibition.

[4] = design: method as in PMID 21118913, PMID 30137238, PMID 25065857; conditions: in red blood cells (RBC); cited from earlier work
[5] = QC High (n = 4; TFV 210, TFVDP 420 ng/mL)
[6] = QC Low (n = 4; TFV 0.75, TFVDP 1.5 ng/mL)

Row | Structure (SMILES) | Level in clinical sample, Blood [1] | Stability, Sample extracts 24 h 10 °C ([2]; QC High (n = 4)) | Stability, Blood 4 h room temp. ([2]; QC High (n = 4)) | Stability, Blood freeze-thaw 5 cycles ([2]; QC High (n = 4)) | Stability, Blood at −30 °C for 1 month [2, 5] | Stability, Sample extracts 24 h 10 °C ([2]; QC Low (n = 4)) | Stability, Blood 4 h room temp. ([2]; QC Low (n = 4)) | Stability, Blood freeze-thaw 5 cycles ([2]; QC Low (n = 4)) | Stability, Blood at −30 °C for 1 month [2, 6] | Degradation in the absence of the phosphatase inhibitor ([2]; 4 h at room temperature, blood spiked with TFVDP only, average at all tested concentrations) | Stability of added diphosphate metabolite in blood [3] | half-life [4]
1 | C[C@H](Cn1cnc2c(N)ncnc21)OCP(=O)(O)O [TFV, Tenofovir] | BLQ | 90.7% | 101% | 111% | 112% | 94.4% | 102% | 114% | 104% | – | – | –
2 | C[C@H](Cn1cnc2c(N)ncnc21)OCP(=O)(O)OP(=O)(O)OP(=O)(O)O [TFVDP, tenofovir diphosphate] | – | 94.3% | 96.9% | 95.4% | 106% | 105% | 105% | 111% | 92.5% | 85% | unstable in blood | 17 days
